Results taken from patent US20150025120A1, “PYRAZOLE-ALCOHOL COMPOUNDS AND PHARMACEUTICAL USE THEREOF” (JAPAN TOBACCO INC., priority 2013, published 2015).

Assays:
human PDHK1 (hPDHK1) = target: T1, human PDHK1 (hPDHK1) (Homo sapiens, UniProt Q15118); test: Inhibitory action of PDHK1 activity in vitro (residual PDH activity after kinase reaction); assay type: biochemical
T1 construct: made in house; host or cells: Escherichia coli BL21(DE3), pET17b
Method: The inhibitory action of PDHK activity was assessed indirectly by measuring the residual PDH activity after kinase reaction in the presence of a test compound.
In the case of human PDHK1 (hPDHK1, Genbank Accession No. L42450.1), a 1.3 kbp fragment encoding this protein was isolated from human liver cDNA by polymerase chain reaction (PCR). Modified hPDHK1 cDNA wherein FLAG-Tag sequence was added to the N terminus was prepared by PCR and cloned into a vector (pET17b-Novagen). The recombinant construct was transformed into Escherichia coli (DH5α-TOYOBO). The recombinant clones were identified, and plasmid DNA was isolated and subjected to the DNA sequence analysis. One clone which had the expected nucleic acid sequence was selected for expression work. […]
Then, 10 μL of substrates (5 mmol/L sodium pyruvate, 5 mmol/L Coenzyme A, 12 mmol/L NAD, 5 mmol/L thiamin pyrophosphate, diluted with buffer) were added. The mixture was incubated at room temperature for 90 min, and the residual PDH activity was measured.
The absorbance at 340 nm before and after PDH reaction was measured using a microplate reader to detect NADH produced by the PDH reaction. The hPDHK1 inhibition rate (%) of the test compound was calculated from the formula [{(PDH activity of the test compound−PDH activity of control)/PDH activity of blank−PDH activity of control)}× 100].

[1] = system: Zucker Diabetic Fatty rats; test: Effect of repeated administration of test compound on HbA1c in ZDF rats; assay type: in vivo, rat; conditions: 1 mg/kg orally once daily, mean ± standard deviation (n = 10)
Method: Zucker Diabetic Fatty rats (male, 7-week-old, CHARLES RIVER LABORATORIES JAPAN INC.), an animal model for type 2 diabetes, given a purified diet (5.9% fat diet, Oriental Yeast Co., Ltd.) were allocated to the vehicle group and the test compound groups so that no bias occurred in the plasma glucose and insulin levels, HbA1c levels and body weights. Repeated oral doses of the test compound (1 mg/kg/5 mL) were administered to the rats once daily at 3 hr before the dark period. A 0.5% aqueous methylcellulose solution was orally administered in the same manner to the rats of the vehicle group. On day 14 or 21 of administration, blood samples were collected from the tail vein and HbA1c level (%) was measured. Statistical analysis was performed by Dunnett's test. Values of p<0.05 were considered statistically significant.

T1 sequence (Q15118 29-436): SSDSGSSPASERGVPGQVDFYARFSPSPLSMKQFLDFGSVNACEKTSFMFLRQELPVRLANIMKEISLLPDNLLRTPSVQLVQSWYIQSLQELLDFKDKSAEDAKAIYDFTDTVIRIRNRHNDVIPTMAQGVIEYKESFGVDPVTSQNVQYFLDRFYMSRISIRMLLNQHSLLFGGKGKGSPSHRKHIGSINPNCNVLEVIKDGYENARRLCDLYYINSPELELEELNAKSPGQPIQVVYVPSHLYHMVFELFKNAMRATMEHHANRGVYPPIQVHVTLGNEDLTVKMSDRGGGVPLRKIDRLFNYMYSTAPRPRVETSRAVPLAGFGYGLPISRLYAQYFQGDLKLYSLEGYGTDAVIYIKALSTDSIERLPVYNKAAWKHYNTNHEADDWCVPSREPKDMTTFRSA

IC50 (human PDHK1 (hPDHK1)) [nM] | SMILES | HbAlc (%) ([1]; day 21 of administration) | HbAlc (%) ([1]; day 14 of administration)
28 | C[C@H](O)COc1cc(-c2cnn(CC(C)(C)O)c2)c2c(c1)[C@@](O)(C(F)(F)F)c1ccccc1-2 [compound (1), (9R)-4-[1-(2-hydroxy-2-methylpropyl)-1H-pyrazol-4-yl]-2-((2S)-2-hydroxypropoxy)-9-(trifluoromethyl)-9H-fluoren-9-ol] | 3.6 ± 0.3 | 
34 | CC(C)(O)COc1cc(-c2cnn(CC(C)(C)O)c2)c2c(c1)[C@@](O)(C(F)(F)F)c1ccccc1-2 [compound (2), (9R)-2-(2-hydroxy-2-methylpropoxy)-4-[1-(2-hydroxy-2-methylpropyl)-1H-pyrazol-4-yl]-9-(trifluoromethyl)-9H-fluoren-9-ol] |  | 3.5 ± 0.1
